Data: patent publication US8633206B2, “Pyrrolo[2,3-D]pyrimidine compounds” (Pfizer Inc., priority 2009, dated 2014)
pIC50: −log10 of the molar value.

Key:
JAK3 = JAK3 (Homo sapiens (Human), UniProt P52333); experiment: JAK enzymatic assay (peptide mobility shift), JAK3; assay type: biochemical; conditions: recombinant JAK3 1 nM, JAKtide peptide, 90 minutes
Experimental: (§1) Recombinant JAK1 (Catalog Number PV4775), JAK2 (Catalog Number PV4210) and JAK3 (Catalog Number PV3855) were purchased from (Invitrogen Corporation, Madison, Wis.). […] Adenosine 5′-triphosphate (ATP) was obtained from (Sigma Chemical Company, St. Louis, Mo.). […] Coating Reagent 3 was purchased from (Caliper Life Sciences, Hopkinton, Mass.).
(§2) Compounds were diluted serially in 100% dimethyl sulfoxide and tested in an 11 point dose response in duplicate or quadruplicate (200 nl of compound/DMSO was added per 10 L reaction). […] The assay was run for 240 minutes for JAK1, 150 minutes for JAK2, 90 minutes for JAK3 and 70 minutes for Tyk2. […] The plates were placed on a LabChip 3000 (LC3000) instrument from (Caliper Life Sciences) to measure the formation of phosphorylated peptide. Data was analyzed using Hits Well Analyzer Software from (Caliper Life Sciences) to obtain the amount of product formed.
(§3) Data was then imported into an internal application where each data point is expressed as % inhibition based on uninhibited and no enzyme controls. Dose-response data is then fit using a 4 parameter logistic equation (Equation 1) to determine an IC50.

JAK1 = JAK1 (Homo sapiens (Human), UniProt P23458); experiment: JAK enzymatic assay (peptide mobility shift), JAK1; assay type: biochemical; conditions: recombinant JAK1 20 nM, IRS-1 peptide, 240 minutes
Chain of JAK1 (P23458 whole entry): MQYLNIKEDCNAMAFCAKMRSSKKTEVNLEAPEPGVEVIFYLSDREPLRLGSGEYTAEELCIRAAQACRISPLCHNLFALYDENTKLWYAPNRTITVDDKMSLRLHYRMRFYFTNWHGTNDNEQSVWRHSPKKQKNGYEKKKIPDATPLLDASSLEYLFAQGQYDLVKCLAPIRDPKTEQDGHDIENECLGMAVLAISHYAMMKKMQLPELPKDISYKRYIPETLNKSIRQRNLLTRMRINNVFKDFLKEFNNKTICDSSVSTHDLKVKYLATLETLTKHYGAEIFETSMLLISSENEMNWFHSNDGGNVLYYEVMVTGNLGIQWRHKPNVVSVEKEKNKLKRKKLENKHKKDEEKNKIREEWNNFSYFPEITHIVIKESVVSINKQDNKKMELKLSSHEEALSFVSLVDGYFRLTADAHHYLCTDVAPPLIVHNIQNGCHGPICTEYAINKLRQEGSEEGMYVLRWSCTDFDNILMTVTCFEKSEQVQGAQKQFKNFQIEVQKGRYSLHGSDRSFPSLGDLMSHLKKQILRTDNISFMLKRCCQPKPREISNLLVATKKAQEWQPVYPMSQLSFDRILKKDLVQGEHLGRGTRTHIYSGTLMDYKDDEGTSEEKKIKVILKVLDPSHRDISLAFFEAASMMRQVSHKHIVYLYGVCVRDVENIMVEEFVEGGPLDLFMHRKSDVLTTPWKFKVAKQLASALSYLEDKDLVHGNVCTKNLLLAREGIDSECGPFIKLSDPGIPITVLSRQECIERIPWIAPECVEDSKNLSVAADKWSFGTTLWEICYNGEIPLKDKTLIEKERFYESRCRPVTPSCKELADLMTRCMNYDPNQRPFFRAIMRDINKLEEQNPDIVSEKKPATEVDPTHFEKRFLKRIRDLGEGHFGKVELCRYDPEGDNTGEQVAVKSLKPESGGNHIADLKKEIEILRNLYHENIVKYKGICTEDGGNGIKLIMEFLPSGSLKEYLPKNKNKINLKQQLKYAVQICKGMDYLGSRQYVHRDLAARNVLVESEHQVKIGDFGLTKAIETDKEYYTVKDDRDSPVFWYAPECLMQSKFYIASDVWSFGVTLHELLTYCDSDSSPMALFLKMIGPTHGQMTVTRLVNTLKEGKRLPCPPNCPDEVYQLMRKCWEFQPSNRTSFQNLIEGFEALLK
Experimental: as §1, §2, §3

Chain of JAK3 (P52333 781-1124): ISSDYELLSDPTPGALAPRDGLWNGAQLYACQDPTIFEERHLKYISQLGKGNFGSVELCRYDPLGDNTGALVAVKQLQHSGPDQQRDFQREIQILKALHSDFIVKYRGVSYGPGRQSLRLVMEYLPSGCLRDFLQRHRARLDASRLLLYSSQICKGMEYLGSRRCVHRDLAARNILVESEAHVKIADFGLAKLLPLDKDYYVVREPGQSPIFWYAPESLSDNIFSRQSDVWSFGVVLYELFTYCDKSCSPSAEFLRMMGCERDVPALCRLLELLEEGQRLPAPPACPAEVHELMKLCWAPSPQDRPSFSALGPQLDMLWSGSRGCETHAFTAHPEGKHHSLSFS

SMILES	pIC50 (JAK3)	pIC50 (JAK1)
CN(c1ncnc2[nH]ccc12)[C@H]1CC[C@H](CS(=O)(=O)N2CCCC(CN3CCCC3)C2)CC1 (stereo partly drawn) [Example 8, N-methyl-N-[trans-4-({[3-(pyrrolidin-1-ylmethyl)-piperidin-1-yl]sulfonyl}-methyl)cyclohexyl]-7H-pyrrolo[2,3-d]pyrimidin-4-amine]	5.48	7.83
CN(c1ncnc2[nH]ccc12)[C@H]1CC[C@H](CS(=O)(=O)N2CCC(N)CC2)CC1 [Example 11, N-(trans-4-{[(4-amino-piperidin-1-yl)sulfonyl]-methyl}cyclohexyl)-N-methyl-7H-pyrrolo[2,3-d]-pyrimidin-4-amine]	5.64	7.37
CN(c1ncnc2[nH]ccc12)[C@H]1CC[C@H](CS(=O)(=O)N2CCC(CS(=O)(=O)CC3CC3)CC2)CC1 [Example 49, N-(trans-4-{[(4-{[(cyclopropylmethyl)sulfonyl]-methyl}piperidin-1-yl)sulfonyl]-methyl}-cyclohexyl)-N-methyl-7H-pyrrolo[2,3-d]pyrimidin-4-amine]	6.31	7.93
CC[C@H](O)C1CCN(S(=O)(=O)C[C@H]2CC[C@H](N(C)c3ncnc4[nH]ccc34)CC2)CC1 [Example 53, 1-{1-[({trans-4-[methyl(7H-pyrrolo[2,3-d]pyrimidin-4-yl)amino]cyclohexyl}-methyl)sulfonyl]piperidin-4-yl}propan-1-ol]	6.17	7.64
CN(c1ncnc2[nH]ccc12)[C@H]1CC[C@H](CS(=O)(=O)N2CCC[C@H](C(N)=O)C2)CC1 [Example 59, 1-[({trans-4-[methyl(7H-pyrrolo[2,3-d]pyrimidin-4-yl)amino]cyclohexyl}methyl)-sulfonyl]piperidine-3-carboxamide]	6.65	8.19
C[C@H]1CCCN1S(=O)(=O)C[C@H]1CC[C@H](N(C)c2ncnc3[nH]ccc23)CC1 [Example 86, N-methyl-N-(trans-4-{[(2-methylpyrrolidin-1-yl)-sulfonyl]methyl}cyclohexyl)-7H-pyrrolo[2,3-d]-pyrimidin-4-amine]	6.34	8.19
CN(c1ncnc2[nH]ccc12)[C@H]1CC[C@H](CS(=O)(=O)N2CC[C@](C)(O)C2)CC1 [Example 99, 3-methyl-1-[({trans-4-[methyl(7H-pyrrolo[2,3-d]pyrimidin-4-yl)amino]cyclohexyl}methyl)-sulfonyl]pyrrolidin-3-ol]	6.49	8.08
CN(c1ncnc2[nH]ccc12)[C@H]1CC[C@H](CS(=O)(=O)N2CCC[C@H]2CN2CCCC2)CC1 [Example 108, N-methyl-N-[trans-4-({[(2S)-2-(pyrrolidin-1-ylmethyl)pyrrolidin-1-yl]sulfonyl}methyl)cyclo-hexyl]-7H-pyrrolo[2,3-d]pyrimidin-4-amine]	6.09	8.33
CN(c1ncnc2[nH]ccc12)[C@H]1CC[C@H](CS(=O)(=O)N2CC(c3cccnc3)C2)CC1 [Example 111, N-methyl-N-(trans-4-{[(3-pyridin-3-ylazetidin-1-yl)sulfonyl]methyl}cyclo-hexyl)-7H-pyrrolo[2,3-d]pyrimidin-4-amine]	6.46	7.64
CN(c1ncnc2[nH]ccc12)[C@H]1CC[C@H](CS(=O)(=O)N2CC(F)C2)CC1 [Example 112, N-(trans-4-{[(3-fluoroazetidin-1-yl)-sulfonyl]-methyl}-cyclohexyl)-N-methyl-7H-pyrrolo[2,3 d]pyrimidin-4-amine]	6.84	7.90
CN(c1ncnc2[nH]ccc12)[C@H]1CC[C@H](CS(=O)(=O)N2CCS(=O)(=O)CC2)CC1 [Example 126, N-(trans-4-{[(1,1-dioxidothiomorpholin-4-yl)sulfonyl]methyl}cyclo-hexyl)-N-methyl-7H-pyrrolo[2,3-d]pyrimidin-4-amine]	6.23	7.71
